{
  "source": "patent US20210085686A1",
  "about": "“DELIVERY OF ACTIVE AGENTS USING NANOFIBER WEBS” (CorMedix Inc., priority 2015, published 2021)",
  "key": {"[1]": {"test": "maximum solubility of taurolidine in HFP (preliminary testing)", "format": "physicochemical", "details": "organic solvent or mixture; solvent 1,1,1,3,3,3-hexafluoro-2-propanol (HFP)", "method": "All of the polymers and the taurolidine were dissolved in 1,1,1,3,3,3-hexafluoro-2-propanol (HFP; Oakwood Chemical) for processing into small diameter (SD) and large diameter (LD) fibers. […] Thus, for preliminary testing, the taurolidine concentration in the electrospinning solutions was maintained at approximately 100 mg/ml."}, "Microbes": {"test_system": "Microbes", "details": "microbes killed and toxins inactivated; cited from earlier work"}},
  "data": [
    {"compound": "O=S1(=O)CCN(CN2CCS(=O)(=O)NC2)CN1", "note": "[taurolidine, bis(1,1-dioxoperhydro-1,2,4-thiadiazinyl-4)-methane]", "values": [
      {"measurement": "solubility", "setting": "[1]", "value": "~218", "unit": "mg/mL"},
      {"measurement": "destruction time in vitro", "setting": "Microbes", "value": 30, "unit": "min"}
    ]}
  ]
}
